Test results taken from patent US7033784B1, “Method of producing an erythroid cell which is undifferentiated yet capable of expressing a heterologous protein” (Syngenta Limited, priority 1999, dated 2006).
One block for each compound: values may come before it.

Tests used:
[1] = biological target: T1, Locusta migratoria tyramine receptor (TyrLoc) (Locusta migratoria, UniProt Q25321); assay: Ca2+ measurements (fura-2) in uninduced MEL-TyrLoc cells; assay type: cell-based; conditions: for antagonism of the Ca2+ increase induced by TA: qualitative, data not shown for part
T1 construct: The coding region of the TyrLoc cDNA was amplified by polymerase chain reaction (PCR) from pVJ12 and pVJ12-IEG; expressed in transfected cells
T1 sequence (Q25321 12-484): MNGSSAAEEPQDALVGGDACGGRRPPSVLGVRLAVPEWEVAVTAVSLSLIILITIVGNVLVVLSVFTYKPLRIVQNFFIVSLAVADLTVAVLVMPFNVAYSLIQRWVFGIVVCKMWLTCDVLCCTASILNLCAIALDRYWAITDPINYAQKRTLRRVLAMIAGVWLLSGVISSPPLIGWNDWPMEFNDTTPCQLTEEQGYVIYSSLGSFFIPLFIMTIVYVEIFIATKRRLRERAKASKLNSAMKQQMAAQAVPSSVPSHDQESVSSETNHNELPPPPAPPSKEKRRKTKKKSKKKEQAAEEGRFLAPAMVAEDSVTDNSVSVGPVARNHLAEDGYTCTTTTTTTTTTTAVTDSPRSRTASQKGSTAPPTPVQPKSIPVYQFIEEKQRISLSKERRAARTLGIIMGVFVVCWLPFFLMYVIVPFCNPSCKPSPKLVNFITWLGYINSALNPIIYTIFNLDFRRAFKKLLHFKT
Protocol: (§1) Elevations in intracellular Ca^2+ in response to stimulation with ligands of the tyramine receptor were measured as follows. Since MEL cells loose the ability to signal on differentiation, and as receptor expression was readily detectable without induction of the MEL cells, uninduced MEL C88L cells of the invention were used.
(§2) Ca^2+ concentration was measured by using the acetoxymethyl (AM) ester of the fluorescent indicator fura-2 (Grynkiewicz G et al. (1985) J. Biol. Chem. 260 3440–3450). Cells were washed with NCF buffer (135 mM NaCl, 5 mM KCl, 6 mM glucose, 0.62 mM MgCl2.6H2O, 10 mM HEPES, pH 7.4 with 4 mM CaCl2) and resuspended at a concentration of 2.10^6 cells/ml in NCF buffer containing 2 μM fura-2-AM (Molecular Probes). After 1 hour incubation in the dark at 27° C., the cell suspension was subjected to centrifugation at 1200 rpm for 5 minutes, resuspended in an equal volume of NCF buffer and incubated for an additional 30 min in the dark. Aliquots were centrifuged as above and resuspended in 3 ml NCF buffer. Measurements of intracellular calcium were made fluorimetrically in a LS-50B Luminescence Spectrophotometer (Perkin-Elmer) in the presence and absence of the appropriate test chemical. Excitation wavelength alternated between 340 and 380 nm. The fluorescence intensity was monitored at an emission wavelength of 510 nm.

[2] = biological target: T1, Locusta migratoria tyramine receptor (TyrLoc); assay: cAMP measurements (Scintillation Proximity Assay) in MEL-TyrLoc cells; assay type: cell-based; conditions: for antagonism of the effect of TA on cAMP: 10 μM Fsk + 0.1 μM TA, yohimbine 100 nM to 1 nM, mianserin 10 nM, chlorpromazine 10 nM; for inhibition of forskolin-induced increase of cAMP: 10 μM Fsk + 1 nM to 10 μM TA, FIG. 6
Protocol: (§3) The effect of TA on the cAMP level of the transformed and untransformed cells was investigated. MEL-C88L and MEL-TyrLoc cells were seeded in 6-well plates to a density of 8.10^5 cells/well and allowed to attach. The cell medium was removed and, in different wells, replaced with different NCF buffer solutions as follows: • (i) NCF+1 μM tyramine (TA), • (ii) NCF+10 μM forskolin (Fsk), • (iii) NCF+10 μM Fsk+1 nM to 10 μM TA. where NCF comprised 135 mM NaCl, 5 mM KCl, 6 mM glucose, 0.62 mM MgCl2, 10 mM Hepes pH 7.4 4 mM CaCl2.
For the use of other ligands than TA, the solutions were: • (iv) NCF+10 μM Fsk+1 μM OA, • (v) NCF+10 μM Fsk+0.1 μM TA+100 nM to 1 nM yohimbine, • (vi) NCF+10 μM Fsk+0.1 μM TA+10 nM mianserin; and • (vii) NCF+10 μM Fsk+0.1 μM TA+10 nM chlorpromazine.
(§4) All solutions contained 200 μM […] (IBMX) in order to inhibit cAMP phosphodiesterase. In each study, triplicate wells were incubated with the same solution at 37° C. for exactly 30 min.
(§5) In order to extract the cAMP, 100% ice-cold ethanol was added to each well to a final concentration of 65%. After 5 min incubation at room temperature, the solution was removed from the wells which were then rinsed with 65% ethanol. The eluates from the same well were then pooled together and evaporated using a speedvac. cAMP was then measured using the Scintillation Proximity Assay (Amersham), according to the manufacturers recommended procedure. This experiment was done in triplicate.

[3] = tested on: Untransformed MEL-C88L cells; assay: cAMP measurements (Scintillation Proximity Assay) in untransformed MEL-C88L cells; assay type: cell-based, Murine; conditions: 200 μM IBMX, FIG. 5
Protocol: as §3, §4, §5

[4] = tested on: Untransformed MEL-C88L cells; assay: Ca2+ measurements (fura-2) in untransformed MEL-C88L control cells; assay type: cell-based, Murine; conditions: concentrations as high as 100 μM TA
Protocol: as §1, §2

[5] = biological target: Dopamine Receptor (D-Dop1) (Drosophila melanogaster, UniProt P41596); conditions: 10 μM dopamine, Clones C and 2, 1×10^6 cells/well, FIG. 7
serotonin receptor = assay: β-galactosidase (CRE reporter) assay using serotonin clones of MEL C88L cells
[6] = yohimbine 0.1, 1 and 2.5 μM, FIG. 4

Dopamine Receptor (D-Dop1), sequence (P41596 20-511): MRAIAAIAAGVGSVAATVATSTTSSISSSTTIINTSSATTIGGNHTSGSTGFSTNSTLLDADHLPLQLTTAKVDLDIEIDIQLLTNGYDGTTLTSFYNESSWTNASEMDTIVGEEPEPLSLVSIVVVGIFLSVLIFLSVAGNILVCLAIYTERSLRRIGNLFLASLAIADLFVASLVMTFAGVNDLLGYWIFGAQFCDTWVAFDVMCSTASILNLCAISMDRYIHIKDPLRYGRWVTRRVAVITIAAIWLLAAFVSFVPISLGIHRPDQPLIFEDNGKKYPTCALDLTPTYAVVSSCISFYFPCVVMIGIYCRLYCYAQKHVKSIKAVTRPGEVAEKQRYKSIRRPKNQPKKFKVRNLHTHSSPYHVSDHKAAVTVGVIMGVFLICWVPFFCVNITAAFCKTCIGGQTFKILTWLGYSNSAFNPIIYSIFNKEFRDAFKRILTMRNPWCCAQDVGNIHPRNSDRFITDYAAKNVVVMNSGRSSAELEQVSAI

SMILES: CN(C)CCCN1c2ccccc2Sc2ccc(Cl)cc21 [Chlorpromazine]
antagonism of the Ca2+ increase induced by TA [1]: clearly inhibited
antagonism of the effect of TA on cAMP [2]: antagonistic effects

SMILES: C=C[C@@]1(C)CC(=O)[C@]2(O)[C@@]3(C)[C@@H](O)CCC(C)(C)[C@@H]3[C@H](O)[C@H](OC(C)=O)[C@@]2(C)O1 [Forskolin, forskolin]
increase of cAMP level ([3]; 10 μM forskolin with or without TA): more than 6 times

SMILES: NCC(O)c1ccc(O)cc1 (centres unmarked) [OA, octopamine]
Ca2+ increase compared with TA ([1]; OA 0.5 μM versus TA 10 nM (50 times higher concentration), FIG. 3): much lesser extent than TA

SMILES: NCCc1ccc(O)cc1 [TA, tyramine]
TA concentration giving maximal Ca2+ response ([1]; MEL-TyrLoc clone, FIG. 2): 1 µM
Ca2+ increase after addition of TA ([1]; MEL-TyrLoc clone, dose-response 0.01 μM upwards, FIG. 2): clear transient increase in Ca^2+
activating concentrations lower than OA ([1]; TA versus OA as agonist of TyrLoc in MEL-TyrLoc cells (summary of Ca2+ and cAMP results)): 3–4 orders of magnitude
Ca2+ response in untransformed cells [4]: no response
inhibition of forskolin-induced increase of cAMP ([2]; 200 μM IBMX): significantly inhibits
inhibition of forskolin-induced increase of cAMP ([2]; 200 μM IBMX, listed as tyramine): inhibition
TA concentration giving maximal response (cAMP inhibition) ([2]; 10 μM Fsk, 200 μM IBMX): 1 µM
TA concentration giving minimal response (cAMP inhibition) ([2]; 10 μM Fsk, 200 μM IBMX): 1 nM
decrease in cAMP production with 1 μM TA when compared to 1 μM OA ([2]; 10 μM Fsk, 200 μM IBMX): 4 fold
effect on cAMP level in untransformed cells ([3]; 1 μM TA, 30 min): did not result in any effect

SMILES: COC(=O)[C@@H]1[C@H]2C[C@H]3c4[nH]c5ccccc5c4CCN3C[C@@H]2CC[C@@H]1O [Yohimbine]
antagonism of the Ca2+ increase induced by TA [1]: strongest antagonist
antagonism of the Ca2+ increase induced by TA ([1]; listed as yohimbine): better receptor antagonist than chlorpromazine and mianserin
inhibition of the Ca2+ response to 0.5 μM TA [1, 6]: concentration-dependent inhibition
inhibition of the Ca2+ response to 5 μM TA [1, 6]: could not inhibit
inhibition of the Ca2+ response to 0.5 μM TA ([1]; yohimbine 0.1, 1 and 2.5 μM, FIG. 4, listed as yohimbin): inhibition
antagonism of the effect of TA on cAMP [2]: inhibited the effect of TA in a dose dependent manner

absorbance at 570 nm (β-galactosidase, indicating cyclic AMP) with dopamine [5]: increase in absorbance at 570 nm
SMILES: NCCc1ccc(O)c(O)c1 [dopamine]

SMILES: C[C@H](CCC(=O)O)C[C@H](C)C[C@H](C)C(=O)/C=C(\O)[C@H](C)C[C@H](C)C/C=C/[C@@H](C)[C@@H](O)[C@@H](C)[C@@H](O)C[C@@H]1CC[C@@](C)([C@H]2CC[C@@](C)([C@@H](C)O)O2)O1 [ionomycin]
intracellular Ca2+ concentration after ionophore ([1]; 2 μM ionomycin, check of fura-2 loading): large increase

SMILES: CCN(CC)CCNC(=O)c1cc(Cl)c(N)cc1OC [metaclopramide]
effect on basal Ca2+ concentrations or on the response of the cells to TA ([1]; at concentrations below 20 μM): no detectable effect

SMILES: CN1CCN2c3ccccc3Cc3ccccc3C2C1 (centres unmarked) [mianserin]
antagonism of the Ca2+ increase induced by TA [1]: clearly inhibited
antagonism of the effect of TA on cAMP [2]: antagonistic effects

SMILES: c1ccc2c(CC3=NCCN3)cccc2c1 [naphazoline]
antagonism of the Ca2+ increase induced by TA [1]: weak antagonists

SMILES: NCCc1c[nH]c2ccc(O)cc12 [serotonin]
forskolin stimulated cAMP in the presence of serotonin (serotonin receptor; forskolin and serotonin): decrease in forskolin stimulated cAMP
cyclic AMP signal with serotonin alone (serotonin receptor; serotonin alone): no effect

SMILES: c1ccc(CC2=NCCN2)cc1 [tolazoline]
antagonism of the Ca2+ increase induced by TA [1]: weak antagonists
